Experimental data taken from article PMC10322781 (Archives of Toxicology, 2023).
Values joined by “and” are separate entries in the source; they are usually repeats but may differ in a detail not shown here. Identical values can stand only once.

Tests used:
CYP3A4 [1] = test system: CYP3A4
Procedure: (§1) A random hexamer primer was used according to the manufacturer’s instructions. […] Experiments were performed in four independent biological replicates with technical duplicates (PCR runs) for each concentration.

mdr1a/b = assay: Pgp inhibition calcein assay in P388/dx cells; assay type: cell-based, murine; settings: for Emax Pgp inhibition: calcein assay, fold compared to untreated cells; for IC50: calcein efflux
Procedure: To investigate the potential Pgp inhibition by the rifamycins, the murine monocytic leukaemia cell line P388/dx (overexpressing the murine Pgp counterpart mdr1a/b (Boesch et al. [1991])) and the corresponding parental cell line P388 were used (kindly provided by Dr. D. Ballinari; Pharmacia & Upjohn, Milan, Italy). Cells were cultured under standard conditions with RPMI 1640 cell culture medium supplemented with FCS 10%, 2 mM glutamine, […] β-mercaptoethanol, 100 U/mL penicillin, and 100 µg/mL streptomycin sulphate. The culture medium of the P388/dx cell line was additionally supplemented with doxorubicin (final concentration: 0.45 µM) to maintain mdr1a/b expression. One day before the experiments, P388/dx cells were set to doxorubicin-free medium.
Pgp activity was determined using a calcein assay as described previously (Fröhlich et al. [2004]) with zosuquidar (10 µM) as a positive control.

Pgp = assay: Induction of Pgp activity in LS180 cells (rhodamine123 efflux, flow cytometry); assay type: cell-based, human; settings: LS180, 144 h exposure; for Emax Pgp activity (activation): fold compared to untreated cells; for EC50 at 144 h: human, LS180 cells, probe rhodamine123 (0.4 µM), with zosuquidar (10 µM), rhodamine123 efflux, read-out: EC50 Pgp activity (activation)
Procedure: To assess the induction of Pgp activity, 200,000 LS180 cells per well were seeded in a 6-well plate, cultured for 3 days and subsequently exposed to rifamycins for 144 h. After treatment, cells were harvested and subjected to the rhodamine efflux assay as described previously (Theile et al. [2013]; Weiss et al. [2008]). Briefly, cells were incubated with the fluorescent Pgp substrate rhodamine123 (0.4 µM) on a rotary shaker for 30 min at 37 °C under protection from light. Subsequently, cells were incubated with the selective Pgp inhibitor zosuquidar (10 µM) for 50 min at 37 °C on a rotary shaker. Medium without zosuquidar was used as a negative control. All washing steps were performed with ice-cold PBS at 4 °C. Intracellular rhodamine123 fluorescence was determined using a flow cytometer (MACSQuant analyzer 10, Miltenyi Biotec, Bergisch Gladbach, Germany). Thirty thousand cells were used for the analysis. For data evaluation, the ratio of zosuquidar-inhibited samples to non-inhibited samples of the rifamycin experiment was calculated and normalized to the ratio of untreated cell controls (no rifamycin treatment).

CYP3A4 [2] = test system: CYP3A4; remark: listed apart in the source
Procedure: To determine CYP3A4 activity in LS180 cells after rifamycin treatment, 20,000 cells per well were seeded into 96-well plates and allowed to grow for 3 days until 70% confluency. […] Cells were washed twice with PBS and then pre-incubated with PBS + 2% FCS for 30 min at 37 °C. PBS was removed and replaced by 50 µL of 3 µM luciferin-IPA (selective CYP3A4 substrate) and incubated for 60 min at 37 °C. After incubation, 25 µL supernatant from each well was transferred to a white 96-well plate and 25 µL detection reagent (containing luciferase) was added. Cells were subsequently incubated for 20 min at room temperature. […] CYP3A4 activity was normalized to untreated controls.

[3] = set-up: method as in Zhang et al. [2008]; settings: 300 mg rifabutin; ref Zhang et al. [2008]; cited from earlier work
LS180 cells = assay type: in vitro ADME; settings: human
Procedure: The UPLC-MS/MS system consisted of a triple stage quadrupole mass spectrometer (Waters Xevo TQ-S, Milford, MA, USA) and an Acquity Classic UPLC® (Waters). Mass spectrometric analysis was performed by selective reaction monitoring using positive electrospray ionization. […] Because of their considerable molecular size, rifamycins were chromatographically separated on a Waters Peptide BEH C18 Column (300 Å, 1.7 μm, 2.1 mm × 50 mm) to foster optimal mass transfer kinetics. The mobile phase was composed of H20/ACN (95/5, v/v) + 0.1% FA (eluent A) and ACN + 0.1% FA (eluent B). […] The total run time was 4 min, and the column was heated to 60 °C. The injection volume was set to 20 μL with a flow rate of 0.5 mL/min. A pellet of untreated LS180 cells (500,000 cells/sample) was used for calibration standards and QC standard. […] Subsequently, proteins were precipitated with 110 μL ACN (uptake samples) or 100 μL ACN (calibration standards and QC standards). […] To determine intracellular rifamycin concentrations, measured compound concentrations were normalized to the total pellet volume. This was achieved by multiplying the measured mean cellular volume of a LS180 cell (CASY cell counter, Schärfe System, Reutlingen, Germany) by the mean cell number of four wells of an identically prepared and treated cell culture plate.

P388 cells = assay: Calcein assay in parental P388 cells; assay type: cell-based, murine
CYP3A4 [4] = biological target: CYP3A4 (Homo sapiens, UniProt P08684); settings: microsomes
CYP3A4 (Homo sapiens, UniProt P08684), sequence (P08684 whole entry): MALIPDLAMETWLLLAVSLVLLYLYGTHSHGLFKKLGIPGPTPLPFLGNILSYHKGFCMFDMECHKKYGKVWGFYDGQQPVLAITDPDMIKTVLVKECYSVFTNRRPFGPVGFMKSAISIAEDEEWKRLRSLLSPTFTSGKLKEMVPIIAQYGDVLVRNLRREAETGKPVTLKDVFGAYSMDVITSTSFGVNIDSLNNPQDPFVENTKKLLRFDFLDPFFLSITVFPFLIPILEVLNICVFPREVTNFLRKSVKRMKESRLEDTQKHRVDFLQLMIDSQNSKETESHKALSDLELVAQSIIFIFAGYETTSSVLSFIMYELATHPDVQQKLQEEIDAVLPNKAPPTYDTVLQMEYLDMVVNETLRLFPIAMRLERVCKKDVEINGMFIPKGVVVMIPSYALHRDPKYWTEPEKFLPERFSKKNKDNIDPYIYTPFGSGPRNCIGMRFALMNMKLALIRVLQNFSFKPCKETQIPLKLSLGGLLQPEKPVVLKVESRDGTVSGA
Procedure: For this purpose, rifamycins were tested between 0.5 to 50 µM. […] A reaction mixture without CYP3A4 was incubated as negative control. Luminescence signals were normalized to the untreated cell control.

[5] = cited from earlier work
ABCB1 = ABCB1 mRNA expression in LS180 cells (real-time RT-PCR); assay type: cell-based, human; settings: for EC50 at 24 h / EC50 at 96 h / EC50 at 144 h: human, LS180 cells
Procedure: as §1

[6] = LS180, 24 h, fold induction compared to untreated cells
[7] = LS180, 96 h, fold induction compared to untreated cells
[8] = LS180, 144 h, fold induction compared to untreated cells
[9] = LS180, 24 h, extracellular concentration
[10] = LS180, 24 h (24*), intracellular concentrations

SMILES	Emax Pgp inhibition (mdr1a/b) [fold]	IC50 (mdr1a/b) [nM]	Emax Pgp activity (activation) (Pgp) [fold]	EC50 at 144 h (Pgp) [nM]	intracellular calcein fluorescence (P388 cells)	Emax ABCB1 mRNA expression (ABCB1; [6]) [fold]	Emax ABCB1 mRNA expression (ABCB1; [7]) [fold]	Emax ABCB1 mRNA expression (ABCB1; [8]) [fold]	EC50 at 24 h (ABCB1; [9]) [nM]	EC50 at 96 h (ABCB1; LS180, 96 h) [nM]	EC50 at 144 h (ABCB1; LS180, 144 h) [nM]	also measured
CO[C@H]1/C=C/O[C@@]2(C)Oc3c(C)c(O)c4c(c3C2=O)C2=NC3(CCN(CC(C)C)CC3)NC2=C(NC(=O)/C(C)=C\C=C\[C@H](C)[C@H](O)[C@@H](C)[C@@H](O)[C@@H](C)[C@H](OC(C)=O)[C@@H]1C)C4=O [Rifabutin]	4.9 ± 1.3	320 ± 100	2.8 ± 0.48	1100 ± 160	remained unchanged	1.4 ± 0.024	2.8 ± 0.16	4.5 ± 0.71	1100 ± 27	1800 ± 1100	1500 ± 720	increase of CYP3A4 mRNA levels (CYP3A4 [1]): twofold; IC50 (mdr1a/b; listed as rifabutin): 300 nM; concentration dependence of CYP3A4 activity (CYP3A4 [2]): no concentration dependence; increase in CYP3A4 activity after exposure (CYP3A4 [2]): no detectable increase; expected drug concentration in the gut lumen [3]: approx. 1.4 mM; time to reach intracellular concentration equilibrium (LS180 cells): 6 h; molar metabolite-to-parent ratio (25-O-deacetyl metabolite) (LS180 cells; 10 µM): 0.002 to 0.006; lowering of CYP3A4 activity (CYP3A4 [4]; human): approx. 80%; effect on dabigatran etexilate kinetics ([5]; 300 mg rifabutin, ref Lutz et al., CPT [2018b]): not affected; reduction of bioavailability of doravirine ([5]; repeated administration of 300 mg rifabutin, ref Khalilieh et al. [2018]): 50%; reduction of bioavailability of indinavir ([5]; repeated administration of 300 mg rifabutin, ref Kraft et al. [2004]): 34%
CO[C@H]1/C=C/O[C@@]2(C)Oc3c(C)c(O)c4c(O)c(c(/C=N/N5CCN(C)CC5)c(O)c4c3C2=O)NC(=O)/C(C)=C\C=C\[C@H](C)[C@H](O)[C@@H](C)[C@@H](O)[C@@H](C)[C@H](OC(C)=O)[C@@H]1C [Rifampicin]	4.3 ± 0.53	13000 ± 4100	3.2 ± 0.37	1000 ± 1.4	remained unchanged	2.6 ± 0.068	5.1 ± 0.12	7.0 ± 0.53	8600 ± 470	1100 ± 56	1000 ± 65	IC50 (mdr1a/b; listed as rifampicin): 12900 nM; lowering of exposure to indinavir ([5]; repetitive administration of 600 mg standard dose of rifampicin, ref Avihingsanon et al. [2012]): approx. 90%; lowering of exposure to doravirine ([5]; repetitive administration of 600 mg standard dose of rifampicin, ref Yee et al. [2017]): approx. 90%; EC50 (ABCB1; [10]): 37000 ± 2000 nM; Emax ABCB1 mRNA expression (ABCB1; LS180, 24 h (24*), intracellular concentrations, compared to untreated): 2.6 fold and 2.6 ± 0.068 fold; EC50 at 24 h (ABCB1; [10]): 37400 nM
CN(C)C(=N)N=C(N)N [metformin]	–	–	–	–	–	–	–	–	–	–	–	effect on CYP3A4 activity (CYP3A4 [4]): no effect
